Results published in ChEMBL document CHEMBL3301361, “Experimental in vitro DMPK and physicochemical data on a set of publicly disclosed compounds”.
In brackets after ≈: the same amount, converted by molar mass.

Experiment: physchem
Conditions: pH 7.4 buffer

Row | solubility thermodynamic | SMILES
1 | 1.8 µM (≈ 0.73 µg/mL) | C[C@@H]1CN(c2nc(N3CCOCC3)c3ccc(-c4ccccc4)nc3n2)C[C@H](C)O1
2 | 2.1 µM (≈ 0.751 µg/mL) | CC(=O)n1c2ccccc2c2cc(NC(=O)CCc3ccncc3)ccc21
3 | 0.8 µM (≈ 0.304 µg/mL) | O=C(c1ccc(F)cc1)C1CCN(C(=O)c2ccc(Cl)c(Cl)c2)CC1
4 | 1.7 µM (≈ 0.684 µg/mL) | CC(=O)N1CCC(n2cc(-c3cnc(N)c(-c4nc5ccccc5o4)c3)cn2)CC1
5 | 1.9 µM (≈ 0.641 µg/mL) | Cc1cc2n[nH]c(=O)n2c2cc(-c3ccc([S+](C)[O-])cc3)ccc12 (stereo not drawn)
6 | 0.8 µM (≈ 0.39 µg/mL) | CN(c1ccnc(Nc2cc(N3CCOCC3)nc(N3CCOCC3)c2)n1)c1cccc2[nH]ncc12
7 | 1.8 µM (≈ 0.436 µg/mL) | Cc1nc(O)c2cc(-c3ccccc3)sc2n1
8 | 1.1 µM (≈ 0.308 µg/mL) | O=C(Cc1ccccc1)Nc1ccc(N2CCCC2)cc1
9 | 1.4 µM (≈ 0.46 µg/mL) | Cc1ccnc(NC(c2ccccn2)c2c(C)[nH]c3ccccc23)c1 (stereo not drawn)
10 | 1 µM (≈ 0.349 µg/mL) | Cc1ccccc1Oc1cc(-n2ncc(Cl)c(Cl)c2=O)ncn1
11 | 0.9 µM (≈ 0.364 µg/mL) | O=S(=O)(c1ccc(F)cc1)N1CCCN(c2nccc(C(F)(F)F)n2)CC1
12 | 1.2 µM (≈ 0.323 µg/mL) | CCOc1ccc(NCC(=O)c2ccc(C)cc2)cc1
13 | 1.9 µM (≈ 0.565 µg/mL) | c1ccc(-c2nc(-c3ccccc3)c(-c3ccccc3)o2)cc1
14 | 2.2 µM (≈ 0.933 µg/mL) | O=S(=O)(c1ccc(N2CCC(c3ccc(Cl)cc3)=N2)cc1)N(CCO)CCO
15 | 2 µM (≈ 0.643 µg/mL) | Cc1onc(-c2ccccc2)c1C(=O)OCC(=O)c1ccccc1
16 | 0.9 µM (≈ 0.328 µg/mL) | O=S(=O)(CC(c1ccccc1)N1CCCCC1)c1ccc(Cl)cc1 (stereo not drawn)
17 | 1.9 µM (≈ 0.632 µg/mL) | Cc1ccc(Oc2ccc(C(=O)N(C)Cc3ccncc3)cc2)cc1
18 | 1.7 µM (≈ 0.79 µg/mL) | COc1cc(OC2CN(C(C)=O)C2)ccc1Nc1ncc(Cl)c(-c2cnc3ccccn23)n1
19 | 1.5 µM (≈ 0.762 µg/mL) | COc1cc(N2CCN(C(=O)[C@H](C)O)CC2)ccc1Nc1ncc(Cl)c(-c2cnc3ccccn23)n1
20 | 1.3 µM (≈ 0.645 µg/mL) | COc1cc(N2CCN(C(C)=O)CC2)ccc1Nc1ncc(Cl)c(-c2cnc3ccc(F)cn23)n1
21 | 1.9 µM (≈ 0.86 µg/mL) | COc1cc2ncnc(Nc3cc(NC(=O)c4ccccc4)c(Cl)cc3F)c2cc1OC
22 | 2.1 µM (≈ 0.761 µg/mL) | Cc1ccc(C(=O)C2CCN(S(=O)(=O)c3c(C)noc3C)CC2)cc1

Row | solubility thermodynamic | SMILES
23 | 1.3 µM (≈ 0.455 µg/mL) | Clc1cccc(CNc2[nH]nc3cccc(Oc4ccccc4)c23)c1
24 | 2.1 µM (≈ 0.5 µg/mL) | Cc1ccc(C(=O)C(=O)c2ccc(C)cc2)cc1
25 | 2 µM (≈ 0.845 µg/mL) | COc1cc2ncnc(Nc3cnn(CC(=O)Nc4cccc(F)c4)c3)c2cc1OC
26 | 1.6 µM (≈ 0.735 µg/mL) | COc1cc2ncnc(Oc3ccc(CC(=O)Nc4ccc(N(C)C)cn4)cc3)c2cc1OC
27 | 2 µM (≈ 0.891 µg/mL) | COc1cccc(NC(=O)Cc2ccc(Oc3ncnc4cc(OC)c(OC)cc34)cc2)c1
28 | 1.8 µM (≈ 0.834 µg/mL) | COc1cc(Oc2ncnc3cc(OC)c(OC)cc23)ccc1CC(=O)Nc1cn(C)nc1C
29 | 1.8 µM (≈ 0.874 µg/mL) | COc1ccc2c(Oc3ccc(CC(=O)Nc4cc(C)cc(CN(C)C)c4)c(OC)c3)ccnc2c1
30 | 1.5 µM (≈ 0.598 µg/mL) | CS(=O)(=O)Cc1cc(N2CC3CCC(C2)O3)nc(-c2ccc3[nH]ccc3c2)n1
31 | 2.1 µM (≈ 0.875 µg/mL) | COc1cc(OC2CCN(C)CC2)c2c(Nc3ccc(F)c(Cl)c3)ncnc2c1
32 | 1 µM (≈ 0.401 µg/mL) | O=C(Nc1ccc(N2CCOCC2)nc1)c1nnc(Nc2ccc(Cl)cc2)o1
33 | 1.6 µM (≈ 0.469 µg/mL) | CCCCOc1ccc(-c2cc(=O)c3ccccc3[nH]2)cc1
34 | 1 µM (≈ 0.446 µg/mL) | COc1cc2ncnc(Nc3cccc(Cl)c3F)c2cc1CN(C(C)C)[C@@H](C)C(N)=O
35 | 1 µM (≈ 0.448 µg/mL) | CC(C)(C)OC(=O)N1CCN(c2ccc(OCc3ccc(S(C)(=O)=O)cc3)cn2)CC1
36 | 2.2 µM (≈ 1.02 µg/mL) | C[C@H]1CN(c2ncc(OCc3ccc(S(C)(=O)=O)cc3)cn2)CCN1C(=O)OC(C)(C)C
37 | 0.9 µM (≈ 0.429 µg/mL) | C[C@@H]1CN(c2ncc(OCc3ccc(S(C)(=O)=O)cc3)cn2)[C@@H](C)CN1C(=O)OC(C)(C)C
38 | 2.2 µM (≈ 1.06 µg/mL) | C[C@@H]1CN(C(=O)OC(C)(C)C)CCN1c1ncc(OCc2ccc(S(C)(=O)=O)cc2F)cn1
39 | 1.7 µM (≈ 0.772 µg/mL) | Cc1cc(CNc2ncc(Br)c(Nc3cc(CCc4ccccc4)[nH]n3)n2)on1
40 | 0.9 µM (≈ 0.264 µg/mL) | COc1ccccc1NC(=O)c1cc2ccccc2cc1O
41 | 0.9 µM (≈ 0.378 µg/mL) | CN(C)C(=O)[C@H](Cc1ccccc1)NC(=O)c1cc2cc(Br)sc2[nH]1
42 | 1.5 µM (≈ 0.564 µg/mL) | CN(C)C(=O)[C@H](Cc1ccccc1)NC(=O)c1cc2cc(Cl)sc2[nH]1
43 | 0.7 µM (≈ 0.244 µg/mL) | CCN1C(=O)C(C)(C)c2cc3[nH]c4c(c3cc21)CCCc1c-4n[nH]c1C
44 | 1.1 µM (≈ 0.385 µg/mL) | O=C(CC(c1ccccc1)S(=O)(=O)c1ccccc1)c1ccccc1 (stereo not drawn)

Row | solubility thermodynamic | SMILES
45 | 1.2 µM (≈ 0.576 µg/mL) | CC(C)CC(C(=O)NCC(=O)CNS(=O)(=O)c1ccccn1)c1cccc(-c2ccccc2)c1 (stereo not drawn)
46 | 1.9 µM (≈ 0.769 µg/mL) | Cc1c(Cl)c(C(F)(F)F)nn1CC(=O)N1CCN(c2ccc(F)cc2)CC1
47 | 1.8 µM (≈ 0.797 µg/mL) | CS(=O)(=O)C1(c2cc(N3CCOCC3)nc(-c3cccc4[nH]ccc34)n2)CCOCC1
48 | 1.5 µM (≈ 0.64 µg/mL) | CC(C)S(=O)(=O)C1(c2cc(N3CCOCC3)nc(-c3cccc4[nH]ccc34)n2)CC1
49 | 0.9 µM (≈ 0.261 µg/mL) | c1ccc(NCc2ccc(CNc3ccccn3)cc2)nc1
50 | 1.9 µM (≈ 1.2 µg/mL) | Cc1cc(C)cc(-c2[nH]c3sc(C(C)(C)C(=O)N4C5CCC4CC5)cc3c2CCN2CCC(CC(=O)N3CCOCC3)CC2)c1
51 | 1.3 µM (≈ 0.597 µg/mL) | CNC(=O)[C@@H](C)Oc1cccc2ncnc(Nc3ccc4c(cnn4Cc4nccs4)c3)c12
52 | 2 µM (≈ 0.964 µg/mL) | Clc1cc(Nc2ncnc3[nH]nc(OCCN4CCOCC4)c23)ccc1OCc1ccccn1
53 | 0.9 µM (≈ 0.519 µg/mL) | Cc1cc(C)cc(-c2[nH]c3ccc(C(C)(C)C(=O)N4C5CCC4CC5)cc3c2CCN(C)CCCCc2ccncc2)c1
54 | 1.4 µM (≈ 0.556 µg/mL) | COc1cc2ncc(C#N)c(Nc3ccc(Oc4ccccc4)cc3)c2cc1OC
55 | 1 µM (≈ 0.414 µg/mL) | CN(C)C(=O)[C@H](Cc1ccccc1)NC(=O)c1cc2cc(Br)ccc2[nH]1
56 | 1.5 µM (≈ 0.622 µg/mL) | COc1cc2c(Nc3ccc(Cl)cc3F)ncnc2cc1OCCn1ccnn1
57 | 1.8 µM (≈ 1.02 µg/mL) | COc1cc2c(Nc3ncc(CC(=O)Nc4cccc(F)c4)s3)ncnc2cc1OCCCN1CCN(C)CC1
58 | 1.7 µM (≈ 1.02 µg/mL) | Cc1cc(C)cc(-c2[nH]c3sc(C(C)(C)C(=O)N4C5CCC4CC5)cc3c2CN2CCN(CC(=O)N3CCCC3)CC2)c1
59 | 1.6 µM (≈ 0.742 µg/mL) | CNC(=O)[C@@H](C)Oc1cccc2ncnc(Nc3ccc(OCc4ccccn4)c(Cl)c3)c12
60 | 0.9 µM (≈ 0.46 µg/mL) | COc1cc2c(Nc3ccc(Oc4ccccc4)cc3)c(C#N)cnc2cc1OCCCN1CCOCC1
61 | 1.9 µM (≈ 0.841 µg/mL) | CCOC(=O)C1CCN(c2ncnc(Oc3ccc(CCC(C)=O)cc3)c2[N+](=O)[O-])CC1
62 | 0.8 µM (≈ 0.281 µg/mL) | NC(=O)Nc1sc(-c2ccccc2)cc1C(=O)NCc1ccccc1
63 | 1.5 µM (≈ 0.486 µg/mL) | NC(=O)c1ccccc1NC(=O)Nc1ccc(Cl)c(Cl)c1
64 | 2.2 µM (≈ 0.653 µg/mL) | Nc1nc(Nc2ccc(Cl)cc2)cc(-c2ccccc2)n1
65 | 0.8 µM (≈ 0.305 µg/mL) | CC#CC(=O)Nc1ccc2ncnc(Nc3cccc(Br)c3)c2c1
66 | 0.9 µM (≈ 0.245 µg/mL) | c1ccc(-c2cnn3cc(-c4ccncc4)cnc23)cc1

Row | SMILES | solubility thermodynamic
67 | CC(C)Cc1nc(-c2ccccc2)c(-c2ccc(CN3CCC(n4c(=O)[nH]c5ccccc54)CC3)cc2)nc1O | 1.6 µM (≈ 0.854 µg/mL)
68 | CN(C(=O)Cc1ccc(S(C)(=O)=O)cc1)[C@@H]1CCN(Cc2nc3cc(F)ccc3s2)C[C@@H]1F | 1.8 µM (≈ 0.888 µg/mL)
